From patent US10174037B2, “Dihydropyrazolopyrimidinone compounds as PDE2 inhibitors” (Merck Sharp & Dohme Corp., priority 2015, dated 2019)

Target: human PDE2A1 (Homo sapiens (Human), UniProt O00408)
Assay: PDE selectivity IMAP FP assay, human PDE2A1
Format: biochemical
Conditions: Human PDE2; Lab B; read-out: Human PDE2 Ki (nM) Lab B
In short: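 IMAP fluorescence polarization assay; PDE2 substrate 50 nM FAM-cAMP containing 1000 nM cGMP, enzyme diluted for 20% substrate conversion, in 10 mM Tris HCl pH 7.2, 10 mM MgCl2, 1 mM DTT. Reaction 60 min at room temperature, stopped with IMAP binding solution; polarization read after 1 h. Ki reported.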

Chain of human PDE2A1 (O00408 other isoform, or with tags, fused parts or gaps): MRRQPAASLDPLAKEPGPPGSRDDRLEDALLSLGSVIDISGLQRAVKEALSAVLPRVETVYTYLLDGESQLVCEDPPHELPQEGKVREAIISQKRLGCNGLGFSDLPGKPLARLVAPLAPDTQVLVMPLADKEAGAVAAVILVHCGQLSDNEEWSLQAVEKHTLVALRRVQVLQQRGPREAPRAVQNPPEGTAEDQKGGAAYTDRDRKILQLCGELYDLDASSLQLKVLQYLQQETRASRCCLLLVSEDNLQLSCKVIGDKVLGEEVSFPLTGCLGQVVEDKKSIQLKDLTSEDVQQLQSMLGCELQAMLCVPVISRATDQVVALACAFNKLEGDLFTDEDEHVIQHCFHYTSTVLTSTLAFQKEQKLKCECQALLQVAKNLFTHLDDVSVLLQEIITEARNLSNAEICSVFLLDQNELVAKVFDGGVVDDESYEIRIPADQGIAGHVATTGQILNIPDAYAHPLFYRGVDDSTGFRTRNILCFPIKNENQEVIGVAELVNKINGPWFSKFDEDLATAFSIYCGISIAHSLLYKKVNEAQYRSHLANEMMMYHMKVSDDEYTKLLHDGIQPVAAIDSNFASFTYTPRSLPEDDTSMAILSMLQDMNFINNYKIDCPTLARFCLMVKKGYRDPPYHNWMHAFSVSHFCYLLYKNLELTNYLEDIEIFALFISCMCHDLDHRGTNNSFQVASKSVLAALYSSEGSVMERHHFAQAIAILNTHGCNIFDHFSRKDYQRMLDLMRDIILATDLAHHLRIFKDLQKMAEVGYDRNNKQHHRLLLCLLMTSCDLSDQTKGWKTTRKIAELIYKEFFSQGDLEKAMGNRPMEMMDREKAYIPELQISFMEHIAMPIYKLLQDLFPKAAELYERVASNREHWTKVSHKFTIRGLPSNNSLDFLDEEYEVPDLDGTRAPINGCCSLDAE

Row | Structure (SMILES) | Ki [nM]
1 | O=c1[nH]c(O)nc2c1c(C(F)(F)F)nn2C(c1ccc(C(F)(F)F)cc1)C1CC1 (single isomer, unassigned) [Example 335, (R)- or (S)-1-(Cyclopropyl(4-(trifluoromethyl)phenyl)methyl)-6-hydroxy-3-(trifluoromethyl)-1H-pyrazolo[3,4-d]pyrimidin-4(5H)-one] | 137
2 | O=c1[nH]c(O)nc2c1c(C(F)(F)F)nn2C(c1ccc(C(F)(F)F)cc1)C1CC1 (single isomer, unassigned) [Example 336, (S)- or (R)-1-(Cyclopropyl(4-(trifluoromethyl)phenyl)methyl)-6-hydroxy-3-(trifluoromethyl)-1H-pyrazolo[3,4-d]pyrimidin-4(5H)-one] | 3.2
3 | CCC(c1ccc(OC(F)F)c(F)c1)n1nc(CF)c2c(=O)[nH]c(N(C)C)nc21 (single isomer, unassigned) [Example 340, (R)- or (S)-1-(1-(4-(Difluoromethoxy)-3-fluorophenyl)propyl)-6-(dimethylamino)-3-(fluoromethyl)-1H-pyrazolo[3,4-d]pyrimidin-4(5H)-one] | 0.58
4 | CCC(c1ccc(OC(F)F)c(F)c1)n1nc(CF)c2c(=O)[nH]c(N(C)C)nc21 (single isomer, unassigned) [Example 341, (S)- or (R)-1-(1-(4-(Difluoromethoxy)-3-fluorophenyl)propyl)-6-(dimethylamino)-3-(fluoromethyl)-1H-pyrazolo[3,4-d]pyrimidin-4(5H)-one] | 0.15
5 | CCC(c1ccc(OC(F)F)cc1F)n1nc(CF)c2c(=O)[nH]c(N(C)C)nc21 (single isomer, unassigned) [Example 342, (R)- or (S)-1-(1-(4-(Difluoromethoxy)-2-fluorophenyl)propyl)-6-(dimethylamino)-3-(fluoromethyl)-1H-pyrazolo[3,4-d]pyrimidin-4(5H)-one] | 0.1
6 | CCC(c1ccc(OC(F)F)cc1F)n1nc(CF)c2c(=O)[nH]c(N(C)C)nc21 (single isomer, unassigned) [Example 343, (S)- or (R)-1-(1-(4-(Difluoromethoxy)-2-fluorophenyl)propyl)-6-(dimethylamino)-3-(fluoromethyl)-1H-pyrazolo[3,4-d]pyrimidin-4(5H)-one] | 1.7
7 | CCC(c1ccc(C(F)F)c(F)c1)n1nc(CF)c2c(=O)[nH]c(N(C)C)nc21 (single isomer, unassigned) [Example 344, (R)- or (S)-1-(1-(4-(Difluoromethyl)-3-fluorophenyl)propyl)-6-(dimethylamino)-3-(fluoromethyl)-1H-pyrazolo[3,4-d]pyrimidin-4(5H)-one] | 6.3
8 | CCC(c1ccc(C(F)F)c(F)c1)n1nc(CF)c2c(=O)[nH]c(N(C)C)nc21 (single isomer, unassigned) [Example 345, (S)- or (R)-1-(1-(4-(Difluoromethyl)-3-fluorophenyl)propyl)-6-(dimethylamino)-3-(fluoromethyl)-1H-pyrazolo[3,4-d]pyrimidin-4(5H)-one] | 0.13
9 | CCC(c1ccc(C(F)F)cc1)n1nc(CF)c2c(=O)[nH]c(N(C)C)nc21 (single isomer, unassigned) [Example 346, (R)- or (S)-1-(1-(4-(Difluoromethyl)phenyl)propyl)-6-(dimethylamino)-3-(fluoromethyl)-1H-pyrazolo[3,4-d]pyrimidin-4(5H)-one] | 6.5
10 | CCC(c1ccc(C(F)F)cc1)n1nc(CF)c2c(=O)[nH]c(N(C)C)nc21 (single isomer, unassigned) [Example 347, (S)- or (R)-1-(1-(4-(Difluoromethyl)phenyl)propyl)-6-(dimethylamino)-3-(fluoromethyl)-1H-pyrazolo[3,4-d]pyrimidin-4(5H)-one] | 0.08
11 | CCC(c1ccc(C(F)F)cc1F)n1nc(CF)c2c(=O)[nH]c(N(C)C)nc21 (single isomer, unassigned) [Example 348, (R)- or (S)-1-(1-(4-(difluoromethyl)-2-fluorophenyl)propyl)-6-(dimethylamino)-3-(fluoromethyl)-1H-pyrazolo[3,4-d]pyrimidin-4(5H)-one] | 0.03
12 | CCC(c1ccc(C(F)F)cc1F)n1nc(CF)c2c(=O)[nH]c(N(C)C)nc21 (single isomer, unassigned) [Example 349, (S)- or (R)-1-(1-(4-(difluoromethyl)-2-fluorophenyl)propyl)-6-(dimethylamino)-3-(fluoromethyl)-1H-pyrazolo[3,4-d]pyrimidin-4(5H)-one] | 4
13 | C[C@@H](c1ccc(C(F)(F)F)cc1)n1nc(CO)c2c(=O)[nH]c(N3CCC3)nc21 [Example 158, (S)-6-(Azetidin-1-yl)-3-(hydroxymethyl)-1-(1-(4-(trifluoromethyl)phenyl)ethyl)-1,5-dihydro-4H-pyrazolo[3,4-d]pyrimidin-4-one] | 0.89

The next lines start with the values.

Row | Ki [nM] | Structure (SMILES)
14 | 346 | CCC(c1ccc(C(F)(F)F)cc1)n1nc(C(F)(F)F)c2c(=O)[nH]c(O)nc21 (single isomer, unassigned) [Example 331, (R)- or (S)-6-Hydroxy-3-(trifluoromethyl)-1-(1-(4-(trifluoromethyl)phenyl)propyl)-1H-pyrazolo[3,4-d]pyrimidin-4(5H)-one]
15 | 3.3 | CCC(c1ccc(C(F)(F)F)cc1)n1nc(C(F)(F)F)c2c(=O)[nH]c(O)nc21 (single isomer, unassigned) [Example 332, (S)- or (R)-6-hydroxy-3-(trifluoromethyl)-1-(1-(4-(trifluoromethyl)phenyl)propyl)-1H-pyrazolo[3,4-d]pyrimidin-4(5H)-one]
16 | 134 | CC(C)C(c1ccc(C(F)(F)F)cc1)n1nc(C(F)(F)F)c2c(=O)[nH]c(O)nc21 (single isomer, unassigned) [Example 333, (R)- or (S)-6-Hydroxy-1-(2-methyl-1-(4-(trifluoromethyl)phenyl)propyl)-3-(trifluoromethyl)-1H-pyrazolo[3,4-d]pyrimidin-4(5H)-one]
17 | 2.3 | CC(C)C(c1ccc(C(F)(F)F)cc1)n1nc(C(F)(F)F)c2c(=O)[nH]c(O)nc21 (single isomer, unassigned) [Example 334, (S)- or (R)-6-Hydroxy-1-(2-methyl-1-(4-(trifluoromethyl)phenyl)propyl)-3-(trifluoromethyl)-1H-pyrazolo[3,4-d]pyrimidin-4(5H)-one]
18 | 2360 | CC(C)(C)C(c1ccc(C(F)(F)F)cc1)n1nc(C(F)(F)F)c2c(=O)[nH]c(O)nc21 (single isomer, unassigned) [Example 337, (R)- or (S)-1-(2,2-Dimethyl-1-(4-(trifluoromethyl)phenyl)propyl)-6-hydroxy-3-(trifluoromethyl)-1H-pyrazolo[3,4-d]pyrimidin-4(5H)-one]
19 | 373 | CC(C)(C)C(c1ccc(C(F)(F)F)cc1)n1nc(C(F)(F)F)c2c(=O)[nH]c(O)nc21 (single isomer, unassigned) [Example 338, (S)- or (R)-1-(2,2-Dimethyl-1-(4-(trifluoromethyl)phenyl)propyl)-6-hydroxy-3-(trifluoromethyl)-1H-pyrazolo[3,4-d]pyrimidin-4(5H)-one]
20 | 0.14 | CN(C)c1nc2c(c(CO)nn2C(c2ccc(C(C)(F)F)c(F)c2)C2CC2)c(=O)[nH]1 (single isomer, unassigned) [Example 350, (R)- or (S)-1-(Cyclopropyl(4-(1,1-difluoroethyl)-3-fluorophenyl)methyl)-6-(dimethylamino)-3-(hydroxymethyl)-1H-pyrazolo[3,4-d]pyrimidin-4(5H)-one]
21 | 0.02 | CN(C)c1nc2c(c(CO)nn2C(c2ccc(C(C)(F)F)c(F)c2)C2CC2)c(=O)[nH]1 (single isomer, unassigned) [Example 351, (S)- or (R)-1-(Cyclopropyl(4-(1,1-difluoroethyl)-3-fluorophenyl)methyl)-6-(dimethylamino)-3-(hydroxymethyl)-1H-pyrazolo[3,4-d]pyrimidin-4(5H)-one]
22 | 1.2 | CN(C)c1nc2c(c(CO)nn2C(c2ccc(C(C)(F)F)cc2F)C2CC2)c(=O)[nH]1 (single isomer, unassigned) [Example 352, (R)- or (S)-1-(Cyclopropyl(4-(1,1-difluoroethyl)-2-fluorophenyl)methyl)-6-(dimethylamino)-3-(hydroxymethyl)-1H-pyrazolo[3,4-d]pyrimidin-4(5H)-one]
23 | 0.05 | CN(C)c1nc2c(c(CO)nn2C(c2ccc(C(C)(F)F)cc2F)C2CC2)c(=O)[nH]1 (single isomer, unassigned) [Example 353, (S)- or (R)-1-(Cyclopropyl(4-(1,1-difluoroethyl)-2-fluorophenyl)methyl)-6-(dimethylamino)-3-(hydroxymethyl)-1H-pyrazolo[3,4-d]pyrimidin-4(5H)-one]
24 | 0.68 | CC(C)C(c1ccc(C(C)(F)F)cc1)n1nc(CO)c2c(=O)[nH]c(N)nc21 (single isomer, unassigned) [Example 356]
25 | 19 | CC(C)C(c1ccc(C(C)(F)F)cc1)n1nc(CO)c2c(=O)[nH]c(N)nc21 (single isomer, unassigned) [Example 357]
26 | 5.3 | CNc1nc2c(c(CO)nn2C(c2ccc(C(C)(F)F)cc2)C(C)C)c(=O)[nH]1 (single isomer, unassigned) [Example 358]
27 | 0.33 | CNc1nc2c(c(CO)nn2C(c2ccc(C(C)(F)F)cc2)C(C)C)c(=O)[nH]1 (single isomer, unassigned) [Example 359]
28 | 3.8 | C[C@@H](c1ccc(C(F)(F)F)cc1)n1nc(CO)c2c(=O)[nH]c(NCCCCl)nc21 [Example 155, 6-[(3-Chloropropyl)amino]-3-(hydroxymethyl)-1-{(1S)-1-[4-(trifluoromethyl)-phenyl]ethyl}-1,5-dihydro-4H-pyrazolo[3,4-d]pyrimidin-4-one]
29 | 12 | C[C@@H](c1ccc(C(F)(F)F)cc1)n1nc(CO)c2c(=O)[nH]c(N)nc21 [Example 157, 6-Amino-3-(hydroxymethyl)-1-{(1S)-1-[4-(trifluoromethyl)phenyl]ethyl}-1,5-dihydro-4H-pyrazolo[3,4-d]pyrimidin-4-one]
